Structures can show the parent of a compound that is named as a salt.
Experiments:
PI3Kα = target: T1, PI3Kα (Homo sapiens, UniProt P42336); experiment: PI3Kα biochemical assay (ADP-Glo); conditions: first value of PI3K-α/δ cell; ATP 10 μM
T1 construct: purchased ThermoFisher PV4788
Procedure: PI3Kα and PI3Kδ Biochemical Assay:
PI3K[…] and PI3K[…] Kinase reactions were performed in a 5 μL volume in low-volume 384-well plates. Typically, PerkinElmer model 6008280 plates were used. The 1× kinase reaction buffer consisted of 50 mM HEPES pH 7.5, 3 mM MgCl2, 0.03% CHAPS, 1 mM EGTA, 100 mM NaCl, and 2 mM DTT. PI3K[…] (ThermoFisher, #PV4788; the final PI3K[…] concentration: 120 ng/mL) or PI3K[…] enzyme solution (ThermoFisher, #PV6451; the final PI3K[…] concentration: 250 ng/mL) was added to the plate, compounds were serially diluted to the final maximal concentration of 100 nM (3 fold series dilution, a total of 10 doses), and the PIP2:3PS (the final concentration: 10 µg/mL) and ATP solution (the final ATP concentration: 10 μM) was added to the 384-well plate. The plate was incubated at 25° C. for 1 hour. ADP-Glo reagent buffer (5 μL) was added to each well. The plate was sealed and incubated for 40 min at 25° C. ADP-Glo detection buffer (10 μL) was added to each well, and the plate was incubated for 40 min at 25° C. and read on a plate reader configured for Luminescence.

hERG = target: T2, hERG (Homo sapiens, UniProt Q12809); experiment: In-vitro hERG inhibition assay (manual patch clamp, hERG-T-REx HEK 293 cells); format: cell-based
T2 construct: host or cells: T-REx HEK293
Procedure: In-Vitro hERG Inhibition Assay:
The hERG-T-REx™ HEK 293 cells (Invitrogen, K1236) were generated by transfecting the hERG coding sequence in the Tet-regulated expression vector pT-Rex-DEST30 into cells expressing the Tet-repressor (T-Rex™ HEK293), thereby producing cells that can be induced to express high level of hERG channels. The cells were cultured in a medium containing of 85% DMEM, 10% dialyzed FBS, 0.1 mM NEAA, 25 mM HEPES, 100 U/mL Penicillin-Streptomycin, 5 μg/mL Blasticidin, and 400 μg/mL Geneticin. The cells were split using TrypLE™ Express (Gibco, 12604) about three times a week and maintained between ˜40% to ˜80% confluence. Before the assay, the cells were induced with doxycycline (Sigma, D9891) at 1 μg/mL for 48 hours. On the experiment day, the induced cells were resuspended and plated onto the coverslips at 5×10^5 cells/per 6 cm cell culture dish prior to use. The hERG channel-mediated current was acquired by manual patch clamp recording systems equipped with amplifiers (HEKA, EPC10 and Molecular Devices, multiclamp 700B) and the inverted phase contrast microscope (Olympus, IX51/71/73). Glass pipettes were prepared by micropipette puller (Sutter, P97 and Narishige, PC-10) and qualified by the pipette resistance in the range of […]. The internal pipette solution was 140 mM KCl, 2 mM MgCl2, 10 mM EGTA, 5 mM MgATP, and 10 mM HEPES (pH adjusted to 7.35 with KOH), and the external buffer was 132 mM NaCl, 4 mM KCl, 3 mM CaCl2), 0.5 mM MgCl2, 11.1 mM glucose, and 10 mM HEPES (pH adjusted to 7.35 with NaOH). The whole-cell configuration was maintained with access resistance continuously monitored (<15 M[…]). The hERG current was elicited by depolarizing membrane to +30 mV for 4.8 sec, and the voltage was set back to −50 mV for 5.2 sec to remove the inactivation and measure the deactivating tail current. The maximum amount of tail current size was used to determine hERG current amplitude. To evaluate the hERG inhibition, the blank vehicle and test articles were perfused to cells under whole-cell recording configuration through the liquid perfusion system (ALA, VM8 gravity-flow delivery system). For dose response assay, test article was applied to the cells accumulatively from low to high concentrations. A positive control (Dofetilide) was used in the experiments to ensure the performance of the cells and operations as major part of method validation. The percentage hERG current inhibition was fitted against dose concentrations to build the dose-response curve and determine IC50.

mTOR = target: T3, mTOR (Homo sapiens, UniProt P42345); experiment: mTOR biochemical assay (LanthaScreen TR-FRET); conditions: ATP 3 μM, maximal concentration 100 nM
T3 construct: purchased ThermoFisher PR8683B
Procedure: mTOR Kinase reactions were performed in a 10 μL volume in low-volume 384-well plates. Typically, PerkinElmer model 6008260 plates were used. The composition of the 1× kinase reaction buffer was: 50 mM HEPES pH 7.5, 0.01% Tween 20, 1 mM EGTA, 10 mM MnCl2, and 2 mM DTT. The solution of mTOR enzyme (ThermoFisher, #PR8683B; the final mTOR concentration: 0.5 μg/mL) was added, and the compounds were serially diluted to the final maximal concentration of 100 nM (3 fold series dilution, a total of 10 doses). GFP-4E-BP1 (the final concentration: 0.4 μM) and the ATP solution (the final ATP concentration: 3 μM) were added to the 384-well plate. The plate was incubated at 25° C. for 1 hour, and 10 μL of the EDTA solution (20 mM) and Tb-labeled anti-p4E-BP1 antibody (4 nM) in TR-FRET dilution buffer were added to each well. The plate was sealed, incubated 30 min at 25° C., and read on a plate reader configured for LanthaScreen™ TRFRET.

T2 sequence (Q12809 whole entry): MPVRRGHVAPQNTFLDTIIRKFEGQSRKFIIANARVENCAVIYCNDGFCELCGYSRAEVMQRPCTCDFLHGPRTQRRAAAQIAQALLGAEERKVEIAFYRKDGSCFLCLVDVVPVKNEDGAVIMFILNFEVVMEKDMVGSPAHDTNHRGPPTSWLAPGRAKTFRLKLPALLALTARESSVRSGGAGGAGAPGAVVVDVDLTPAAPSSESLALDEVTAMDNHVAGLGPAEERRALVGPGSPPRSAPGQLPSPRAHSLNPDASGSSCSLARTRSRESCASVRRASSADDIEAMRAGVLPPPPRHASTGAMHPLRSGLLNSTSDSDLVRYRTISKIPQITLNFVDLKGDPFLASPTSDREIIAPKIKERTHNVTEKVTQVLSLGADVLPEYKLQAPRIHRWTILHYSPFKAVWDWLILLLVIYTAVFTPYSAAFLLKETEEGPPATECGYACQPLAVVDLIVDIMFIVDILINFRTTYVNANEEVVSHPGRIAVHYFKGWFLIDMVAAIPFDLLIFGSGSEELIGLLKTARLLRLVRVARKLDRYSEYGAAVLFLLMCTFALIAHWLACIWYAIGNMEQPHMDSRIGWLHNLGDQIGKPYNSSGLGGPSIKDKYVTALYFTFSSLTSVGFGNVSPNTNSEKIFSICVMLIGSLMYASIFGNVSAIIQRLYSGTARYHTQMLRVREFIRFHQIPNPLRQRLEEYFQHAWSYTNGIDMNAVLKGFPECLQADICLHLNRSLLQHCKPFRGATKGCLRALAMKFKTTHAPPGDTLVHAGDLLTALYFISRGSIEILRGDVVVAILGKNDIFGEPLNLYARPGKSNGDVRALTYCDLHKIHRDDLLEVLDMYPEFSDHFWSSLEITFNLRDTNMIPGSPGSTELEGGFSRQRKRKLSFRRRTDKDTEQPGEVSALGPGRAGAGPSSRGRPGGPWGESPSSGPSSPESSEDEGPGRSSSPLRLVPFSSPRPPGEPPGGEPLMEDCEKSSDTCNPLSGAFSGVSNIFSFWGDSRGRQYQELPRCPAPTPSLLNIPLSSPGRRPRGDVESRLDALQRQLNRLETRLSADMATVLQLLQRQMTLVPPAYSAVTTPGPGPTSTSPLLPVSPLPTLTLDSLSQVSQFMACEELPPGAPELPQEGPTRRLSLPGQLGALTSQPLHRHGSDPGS
T1 sequence (P42336 whole entry): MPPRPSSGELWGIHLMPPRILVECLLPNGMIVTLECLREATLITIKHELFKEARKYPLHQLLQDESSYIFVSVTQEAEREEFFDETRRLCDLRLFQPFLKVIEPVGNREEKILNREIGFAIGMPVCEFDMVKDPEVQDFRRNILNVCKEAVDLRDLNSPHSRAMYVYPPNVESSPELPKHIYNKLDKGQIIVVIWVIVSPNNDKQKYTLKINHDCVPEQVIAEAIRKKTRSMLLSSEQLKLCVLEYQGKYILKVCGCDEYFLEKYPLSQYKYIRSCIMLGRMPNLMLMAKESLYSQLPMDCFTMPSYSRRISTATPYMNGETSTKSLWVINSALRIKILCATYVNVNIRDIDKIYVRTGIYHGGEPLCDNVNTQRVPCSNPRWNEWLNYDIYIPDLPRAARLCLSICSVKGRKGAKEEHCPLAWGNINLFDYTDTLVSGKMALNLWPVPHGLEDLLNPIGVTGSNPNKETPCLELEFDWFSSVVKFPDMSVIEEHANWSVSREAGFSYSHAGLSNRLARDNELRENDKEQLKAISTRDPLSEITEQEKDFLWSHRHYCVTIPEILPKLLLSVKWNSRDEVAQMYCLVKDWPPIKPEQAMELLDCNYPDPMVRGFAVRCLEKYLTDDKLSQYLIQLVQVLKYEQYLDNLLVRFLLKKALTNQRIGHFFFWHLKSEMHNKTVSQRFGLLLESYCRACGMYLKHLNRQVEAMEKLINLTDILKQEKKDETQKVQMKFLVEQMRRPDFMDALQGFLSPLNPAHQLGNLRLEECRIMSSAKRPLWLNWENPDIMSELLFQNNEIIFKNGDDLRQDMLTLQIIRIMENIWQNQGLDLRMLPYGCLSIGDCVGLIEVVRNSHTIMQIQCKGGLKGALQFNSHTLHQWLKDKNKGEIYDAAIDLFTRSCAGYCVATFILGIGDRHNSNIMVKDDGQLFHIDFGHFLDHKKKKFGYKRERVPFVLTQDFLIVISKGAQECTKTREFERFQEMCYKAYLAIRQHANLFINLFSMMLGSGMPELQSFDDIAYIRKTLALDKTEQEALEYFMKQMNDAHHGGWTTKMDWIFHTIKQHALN
T1 sequence (P27986 whole entry partner): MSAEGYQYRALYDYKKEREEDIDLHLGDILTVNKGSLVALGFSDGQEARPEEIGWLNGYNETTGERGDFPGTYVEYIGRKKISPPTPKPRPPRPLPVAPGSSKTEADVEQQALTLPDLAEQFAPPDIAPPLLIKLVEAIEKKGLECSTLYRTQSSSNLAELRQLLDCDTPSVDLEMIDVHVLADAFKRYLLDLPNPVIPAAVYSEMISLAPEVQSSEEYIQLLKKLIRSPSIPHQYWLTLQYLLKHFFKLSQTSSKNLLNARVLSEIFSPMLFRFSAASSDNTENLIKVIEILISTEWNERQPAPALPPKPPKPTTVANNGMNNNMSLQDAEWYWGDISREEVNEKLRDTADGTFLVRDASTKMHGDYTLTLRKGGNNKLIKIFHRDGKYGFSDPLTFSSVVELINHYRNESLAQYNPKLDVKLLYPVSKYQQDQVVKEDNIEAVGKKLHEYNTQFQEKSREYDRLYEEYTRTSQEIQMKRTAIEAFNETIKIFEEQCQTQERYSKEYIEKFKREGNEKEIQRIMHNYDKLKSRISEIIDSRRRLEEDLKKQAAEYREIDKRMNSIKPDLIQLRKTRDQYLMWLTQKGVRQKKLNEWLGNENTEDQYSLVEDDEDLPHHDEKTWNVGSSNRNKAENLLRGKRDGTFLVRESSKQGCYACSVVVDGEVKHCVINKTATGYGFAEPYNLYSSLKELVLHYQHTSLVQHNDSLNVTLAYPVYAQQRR
T3 sequence (P42345 1360-2549 limits assumed): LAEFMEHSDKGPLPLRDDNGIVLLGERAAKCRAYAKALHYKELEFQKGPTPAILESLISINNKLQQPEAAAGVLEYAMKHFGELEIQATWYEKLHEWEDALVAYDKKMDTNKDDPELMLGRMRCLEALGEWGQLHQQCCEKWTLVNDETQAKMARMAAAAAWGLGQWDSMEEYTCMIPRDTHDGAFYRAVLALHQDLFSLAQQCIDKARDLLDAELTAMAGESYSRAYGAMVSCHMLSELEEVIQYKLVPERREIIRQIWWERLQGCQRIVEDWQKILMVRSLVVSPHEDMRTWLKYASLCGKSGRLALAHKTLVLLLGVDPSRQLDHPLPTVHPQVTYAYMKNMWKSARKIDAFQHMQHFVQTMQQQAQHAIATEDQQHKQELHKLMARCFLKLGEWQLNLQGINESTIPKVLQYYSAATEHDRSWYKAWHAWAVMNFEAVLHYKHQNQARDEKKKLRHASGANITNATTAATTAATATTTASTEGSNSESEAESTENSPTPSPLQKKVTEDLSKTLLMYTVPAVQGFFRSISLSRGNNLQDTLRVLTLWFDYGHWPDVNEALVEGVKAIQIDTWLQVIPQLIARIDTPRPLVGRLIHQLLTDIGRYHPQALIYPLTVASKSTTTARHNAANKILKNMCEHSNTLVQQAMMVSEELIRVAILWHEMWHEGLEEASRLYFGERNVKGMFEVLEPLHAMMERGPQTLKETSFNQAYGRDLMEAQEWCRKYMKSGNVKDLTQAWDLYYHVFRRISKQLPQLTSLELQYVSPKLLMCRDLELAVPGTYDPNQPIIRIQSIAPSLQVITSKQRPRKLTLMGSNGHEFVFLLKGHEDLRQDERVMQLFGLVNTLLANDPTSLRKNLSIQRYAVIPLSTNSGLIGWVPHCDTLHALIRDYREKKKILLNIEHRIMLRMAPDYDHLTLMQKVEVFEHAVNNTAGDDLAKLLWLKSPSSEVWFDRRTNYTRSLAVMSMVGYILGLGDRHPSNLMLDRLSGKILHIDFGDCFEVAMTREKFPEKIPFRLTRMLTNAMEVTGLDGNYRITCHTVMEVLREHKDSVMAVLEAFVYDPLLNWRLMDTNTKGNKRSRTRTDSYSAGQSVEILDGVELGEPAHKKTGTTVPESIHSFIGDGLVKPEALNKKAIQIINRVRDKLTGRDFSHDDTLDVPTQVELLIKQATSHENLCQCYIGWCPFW

| SMILES | IC50 (PI3Kα) [nM] | IC50 (hERG; human, hERG-T-REx HEK 293 cells expressing hERG, pH 7.35, tail current) [nM] | IC50 (mTOR) [nM] | IC50 (hERG; tail current) [nM] |
| --- | --- | --- | --- | --- |
| CC(C)NCCOc1ncc(-c2cc3c4c(cnc3cc2F)N(C)C(=O)C42CCC2)cc1NS(C)(=O)=O [Compound 569, N-(5-(7′-Fluoro-3′-methyl-2′-oxo-2′,3′-dihydrospiro[cyclobutane-1,1′-pyrrolo[2,3-c]quinolin]-8′-yl)-2-(2-(isopropylamino)ethoxy)pyridin-3-yl)methanesulfonamide] | 16 | > 30000 | – | – |
| CC[C@H]1C[C@]2(C1)C(=O)N(C)c1cnc3cc(F)c(-c4cnc(OCCNC(C)C)c(NS(C)(=O)=O)c4)cc3c12 [Compound 573, cis-N-(5-(3-Ethyl-7′-fluoro-3′-methyl-2′-oxo-2′,3′-dihydrospiro[cyclobutane-1,1′-pyrrolo[2,3-c]quinolin]-8′-yl)-2-(2-(isopropylamino)ethoxy)pyridin-3-yl)methanesulfonamide] | 18 | – | > 100 | 3000 |
| CC(C)NCCOc1ncc(-c2cc3c(cc2F)ncc2c3[C@]3(C[C@@H](OCc4ccccc4)C3)C(=O)N2C)cc1NS(C)(=O)=O [Compound 567, trans-N-(5-(3-(Benzyloxy)-7′-fluoro-3′-methyl-2′-oxo-2′,3′-dihydrospiro[cyclobutane-1,1′-pyrrolo[2,3-c]quinolin]-8′-yl)-2-(2-(isopropylamino)ethoxy)pyridin-3-yl)methanesulfonamide] | > 100 | – | > 100 | 5500 |
| CC(C)NCCOc1ncc(-c2cc3c4c(cnc3cc2F)N(C)C(=O)C42CN(C(C)C)C2)cc1NS(C)(=O)=O [Compound 571, N-(5-(7′-Fluoro-1-isopropyl-3′-methyl-2′-oxo-2′,3′-dihydrospiro[azetidine-3,1′-pyrrolo[2,3-c]quinolin]-8′-yl)-2-(2-(isopropylamino)ethoxy)pyridin-3-yl)methanesulfonamide] | 62 | – | > 100 | 5600 |
| CC(C)NCCOc1ncc(-c2cc3c4c(cnc3cc2F)N(C)C(=O)C42CCC2)cc1NS(=O)(=O)C(C)C [Compound 568, N-(5-(7′-Fluoro-3′-methyl-2′-oxo-2′,3′-dihydrospiro[cyclobutane-1,1′-pyrrolo[2,3-c]quinolin]-8′-yl)-2-(2-(isopropylamino)ethoxy)pyridin-3-yl)propane-2-sulfonamide] | 18 | – | > 100 | 14000 |
| CC(C)NCCOc1ncc(-c2cc3c(cc2F)ncc2c3[C@]3(C[C@H](OCc4ccccc4)C3)C(=O)N2C)cc1NS(C)(=O)=O [Compound 572, cis-N-(5-(3-(Benzyloxy)-7′-fluoro-3′-methyl-2′-oxo-2′,3′-dihydrospiro[cyclobutane-1,1′-pyrrolo[2,3-c]quinolin]-8′-yl)-2-(2-(isopropylamino)ethoxy)pyridin-3-yl)methanesulfonamide] | 23 | – | > 100 | 7500 |
| CC[C@H]1C[C@@]2(C1)C(=O)N(C)c1cnc3cc(F)c(-c4cnc(OCCNC(C)C)c(NS(C)(=O)=O)c4)cc3c12 [Compound 566, trans-N-(5-(3-Ethyl-7′-fluoro-3′-methyl-2′-oxo-2′,3′-dihydrospiro[cyclobutane-1,1′-pyrrolo[2,3-c]quinolin]-8′-yl)-2-(2-(isopropylamino)ethoxy)pyridin-3-yl)methanesulfonamide] | > 100 | – | > 100 | 2100 |
| CCS(=O)(=O)Nc1cc(-c2cc3c4c(cnc3cc2F)N(C)C(=O)C42CCC2)cnc1OCCNC(C)C [Compound 570, N-(5-(7′-Fluoro-3′-methyl-2′-oxo-2′,3′-dihydrospiro[cyclobutane-1,1′-pyrrolo[2,3-c]quinolin]-8′-yl)-2-(2-(isopropylamino)ethoxy)pyridin-3-yl)ethanesulfonamide] | 21 | – | > 100 | 10500 |
| CN1C(=O)C2(CCC2)c2c1cnc1ccc(-c3cnc(N4CC(N(C)C)C4)c(NS(C)(=O)=O)c3)cc21 [Compound 574, N-(2-(3-(Dimethylamino)azetidin-1-yl)-5-(3′-methyl-2′-oxo-2′,3′-dihydrospiro[cyclobutane-1,1′-pyrrolo[2,3-c]quinolin]-8′-yl)pyridin-3-yl)methanesulfonamide hydrochloride] | 0.12 | – | 19.9 | > 30000 |

— patent US20220142995A1, “DUAL ATM AND DNA-PK INHIBITORS FOR USE IN ANTI-TUMOR THERAPY” (XRAD Therapeutics, Inc., priority 2019, published 2022)
